Measured values from patent publication US9695150B2, “Crystalline form of a substituted quinoline compound and pharmaceutical compositions thereof” (Sunshine Lake Pharma Co., Ltd., priority 2015, dated 2017).

Legend:
[1] = Stability test (impurity contents by HPLC after storage of the solid); format: physicochemical; settings: p-toluenesulfonate
Procedure: A sample of crystalline form C of compound (I) (100˜200 mg) was placed on a watching glass in the form of a thin layer (thickness ≦5 mm). The samples were exposed to the following conditions: high temperature (60±2° C.) for 10 days; high humidity (25±2° C., 90%±5% relative humidity) for 10 days; illumination condition (visible light 4500 lx±500 lx with ultraviolet light not lower than 0.7 W·h/m^2, 25±2° C., 60%±5% relative humidity) for 10 days; and room temperature (30±2° C., 65%±5% relative humidity) for 10 days, respectively. The impurity contents in the samples were determined at different time points (0, 5 and 10 days) by high performance liquid chromatography (HPLC), and the absorption peaks were normalized relative to the highest peak (corresponds to compound I) which is set to 100%.

Hygroscopicity test = format: physicochemical; settings: p-toluenesulfonate; for Hygroscopicity (in words): conclusion from Table 4; for Hygroscopic capacity %: 25±1° C.
Procedure: A glass weighing bottle equipped with a stopper was tarred and the weight was recorded as m1. Compound (I) in crystalline form C or amorphous form (about 1.0 g) was placed in the tared weighing bottle and capped with the stopper. The total weight was then recorded as m2. […] The weighing bottle capped with its stopper was weighed on day 5 and day 10 and the weight was recorded as m3.

[2] = Stability test (impurity contents by HPLC after storage of the solid); format: physicochemical; settings: p-toluenesulfonate; for Increase of the impurity contents: illuminating the samples for 10 days
[3] = Pharmacokinetics test in beagle dogs; format: in vivo
Procedure: The pharmacokinetic properties of amorphous Compound (I) or the crystalline form C of Compound (I) disclosed herein are assessed in beagle dogs. The LC/MS/MS system used in the analysis consists of an Agilent 1200 Series vacuum degasser, binary pump, well-plate autosampler, thermostatted column compartment, the Agilent G6430 Triple Quadrupole Mass Spectrometer with an electrosprayionization (ESI) source. Quantitative analysis was carried out using MRM mode. The parameters for MRM transitions are in the Table A.
An Agilent XDB-C18, 2.1×30 mm, 3.5 μM column was used for the analysis. 5 μL of the samples were injected. Analysis condition: The mobile phase was 0.1% formic acid in water (A) and 0.1% formic acid in methanol (B). The flow rate was 0.4 mL/min. And the gradient of Mobile phase was in the Table B.
Alternatively, an Agilent 6330 series LC/MS/MS spectrometer equipped with G1312A binary pumps, a G1367A autosampler and a G1314C UV detector were used in the analysis. An ESI source was used on the LC/MS/MS spectrometer. The analysis was done in positive ion mode as appropriate and the MRM transition for each analyte was optimized using standard solution. A Capcell MP-C18 100×4.6 mm I.D., […] column (Phenomenex, Torrance, Calif., USA) was used during the analysis. The mobile phase was 5 mM ammonia acetate, 0.1% MeOH in water (A): 5 mM ammonia acetate, 0.1% MeOH in acetonitrile (B) (70/30, v/v). The flow rate was 0.6 mL/min. Column was maintained at ambient temperature. 20 μL of the samples were injected.
The capsule of the crystalline form C or the amorphous of Compound (I) mixed with adjuvants respectively was administered by gavage to beagle dogs in a dose of 7 or 10 mg/kg. The blood samples (0.3 mL) were drawn at 0.25, 0.5, 1.0, 2.0, 3.0, 4.0, 6.0, 8.0, 12 and 24 hour time points or 0.083, 0.25, 0.5, 1.0, 2.0, 4.0, 6.0, 8.0 and 24 hour time points and centrifuged at 3,000 or 4000 rpm for 2 to 10 min. The plasma solutions were collected, and analyzed by LC/MS/MS as described above. The pharmacokinetic parameters were calculated according to non-compartment model using WinNonlin procedure.

[4] = high temperature (60±2° C.), 0 day
[5] = high temperature (60±2° C.), 5 days
[6] = illuminating condition (visible light 4500 lx±500 lx with UV, 25±2° C., 60%±5% RH), 0 day
[7] = illuminating condition (visible light 4500 lx±500 lx with UV, 25±2° C., 60%±5% RH), 5 days
[8] = room temperature (30±2° C., 65%±5% relative humidity), 5 days
[9] = room temperature (30±2° C., 65%±5% relative humidity), 10 days
[10] = listed as amorphous Compound (I)
[11] = high humidity (25±2° C., 90%±5% relative humidity), 0 day
[12] = high humidity (25±2° C., 90%±5% relative humidity), 5 days
[13] = high humidity (25±2° C., 90%±5% relative humidity), 10 days
[14] = high temperature (60±2° C.), 10 days
[15] = illuminating condition (visible light 4500 lx±500 lx with UV, 25±2° C., 60%±5% RH), 10 days
[16] = room temperature (30±2° C., 65%±5% relative humidity), 0 day
[17] = dog, plasma, po, capsule by gavage, dose 9.9 mg/kg (Form C), 9.7 mg/kg (Amorphous)

## Cc1c(C(=O)Nc2ccc(Oc3ccnc4cc(OCC(C)(C)O)ccc34)c(F)c2)c(=O)n(-c2ccccc2)n1C.Cc1ccc(S(=O)(=O)O)cc1 [Amorphous, N-(3-fluoro-4-((7-(2-hydroxy-2-methylpropoxy)quinolin-4-yl)oxy)phenyl)-1,5-dimethyl-3-oxo-2-phenyl-2,3-dihydro-1H-pyrazole-4-carboxamide p-toluenesulfonate]
[1]; [4]
  The impurity contents: 0.14%
[1]; [5]
  The impurity contents: 0.13%
[1]; [6]
  The impurity contents: 0.14%
[1]; [7]
  The impurity contents: 0.36%
[1]; [8]
  The impurity contents: 0.07%
[1]; [9]
  The impurity contents: 0.07%
Hygroscopicity test; [10]
  Hygroscopicity (in words): hygroscopic
Hygroscopicity test; standing time 5 d
  Hygroscopic capacity %: 7.74%
Hygroscopicity test; standing time 10 d
  Hygroscopic capacity %: 8.48%
[2]; [11]
  The impurity contents: 0.14%
[2]; [12]
  The impurity contents: 0.11%
[2]; [13]
  The impurity contents: 0.07%
[2]; [14]
  The impurity contents: 0.10%
[2]; [15]
  The impurity contents: 0.56%
[2]; [10]
  Increase of the impurity contents: 0.42%
[2]; [16]
  The impurity contents: 0.14%

## Cc1c(C(=O)Nc2ccc(Oc3ccnc4cc(OCC(C)(C)O)ccc34)c(F)c2)c(=O)n(-c2ccccc2)n1C.Cc1ccc(S(=O)(=O)O)cc1 [Form C, N-(3-fluoro-4-((7-(2-hydroxy-2-methylpropoxy)quinolin-4-yl)oxy)phenyl)-1,5-dimethyl-3-oxo-2-phenyl-2,3-dihydro-1H-pyrazole-4-carboxamide p-toluenesulfonate]
[1]; [4]
  The impurity contents: 2.00%
[1]; [5]
  The impurity contents: 1.97%
[1]; [6]
  The impurity contents: 2.00%
[1]; [7]
  The impurity contents: 1.97%
[1]; [8]
  The impurity contents: 1.90%
[1]; [9]
  The impurity contents: 1.91%
Hygroscopicity test; listed as crystalline form C of compound (I)
  Hygroscopicity (in words): not hygroscopic
Hygroscopicity test; standing time 5 d
  Hygroscopic capacity %: 0.22%
Hygroscopicity test; standing time 10 d
  Hygroscopic capacity %: 0.43%
[3]; Cmax, AUC0-24h and AUC0-∞ compared with amorphous Compound (I)
  Exposure and bioavailability in vivo (in words): good exposure and bioavailability
[3]; [17]
  AUC(0-inf): 90100 ng·h/mL
  Cmax: 4760 ng/mL
  Tmax: 4 h
  half-life: 876 min
[3]; dog, plasma, po, capsule by gavage, dose 9.9 mg/kg (Form C), 9.7 mg/kg (Amorphous), read-out: AUC0-24 h
  AUC(0-t): 59700 ng·h/mL
[2]; [11]
  The impurity contents: 2.00%
[2]; [12]
  The impurity contents: 1.94%
[2]; [13]
  The impurity contents: 1.92%
[2]; [14]
  The impurity contents: 1.89%
[2]; [15]
  The impurity contents: 2.14%
[2]; listed as crystalline form C of Compound (I)
  Increase of the impurity contents: 0.14%
[2]; [16]
  The impurity contents: 2.00%
